Tested on: MCH receptors
Test: MCH receptor activity class (method not given)
Settings: MCH receptor activity class 1-3 (percent of control at 10^-7 M or IC50)

Structure (SMILES)	class
CN(C)c1ccnc(N[C@H]2CC[C@@H](NC(=S)Nc3ccc4c(c3)OCO4)CC2)n1 [compound 2350]	3 (Class 3 The value of percent of control at 10^−7 M was more than 60% or the value of IC50 was more than 200 nM.)
Cc1c(Cl)cccc1NC(=S)N[C@H]1CC[C@@H](Nc2nccc(N(C)C)n2)CC1 [compound 2351]	3 (Class 3 The value of percent of control at 10^−7 M was more than 60% or the value of IC50 was more than 200 nM.)
CN(C)c1ccnc(N[C@H]2CC[C@@H](NC(=S)Nc3ccc(Br)cc3OC(F)(F)F)CC2)n1 [compound 2352]	3 (Class 3 The value of percent of control at 10^−7 M was more than 60% or the value of IC50 was more than 200 nM.)
COc1cc(NC(=S)N[C@H]2CC[C@@H](Nc3nccc(N(C)C)n3)CC2)c(OC)cc1Cl [compound 2353]	3 (Class 3 The value of percent of control at 10^−7 M was more than 60% or the value of IC50 was more than 200 nM.)
Cc1onc(-c2ccccc2)c1NC(=S)N[C@H]1CC[C@@H](Nc2nccc(N(C)C)n2)CC1 [compound 2354]	3 (Class 3 The value of percent of control at 10^−7 M was more than 60% or the value of IC50 was more than 200 nM.)
COC(=O)c1scc(C)c1NC(=S)N[C@H]1CC[C@@H](Nc2nccc(N(C)C)n2)CC1 [compound 2356]	3 (Class 3 The value of percent of control at 10^−7 M was more than 60% or the value of IC50 was more than 200 nM.)
COC(=O)c1sccc1NC(=S)N[C@H]1CC[C@@H](Nc2nccc(N(C)C)n2)CC1 [compound 2357]	3 (Class 3 The value of percent of control at 10^−7 M was more than 60% or the value of IC50 was more than 200 nM.)
CCCCc1ccc(NC(=S)N[C@H]2CC[C@@H](Nc3nccc(N(C)C)n3)CC2)c(C)c1 [compound 2358]	3 (Class 3 The value of percent of control at 10^−7 M was more than 60% or the value of IC50 was more than 200 nM.)
CN(C)c1cc(N[C@H]2CC[C@@H](CNC(=O)Nc3ccccc3Cl)CC2)nc2ccccc12 [compound 2359]	3 (Class 3 The value of percent of control at 10^−7 M was more than 60% or the value of IC50 was more than 200 nM.)
Cc1cccc(C)c1NC(=O)NC[C@H]1CC[C@@H](Nc2cc(N(C)C)c3ccccc3n2)CC1 [compound 2360]	3 (Class 3 The value of percent of control at 10^−7 M was more than 60% or the value of IC50 was more than 200 nM.)
CN(C)c1cc(N[C@H]2CC[C@@H](CNC(=O)Nc3ccc(F)cc3F)CC2)nc2ccccc12 [compound 2361]	3 (Class 3 The value of percent of control at 10^−7 M was more than 60% or the value of IC50 was more than 200 nM.)
CCc1cccc(C)c1NC(=O)NC[C@H]1CC[C@@H](Nc2cc(N(C)C)c3ccccc3n2)CC1 [compound 2362, N-[(cis-4-{[4-(dimethylamino)quinolin-2-yl]amino}cyclohexyl)methyl]-N′-(2-ethyl-6-methylphenyl)urea]	2 (Class 2: The value of percent of control at 10^−7 M was from 40% to 60% or the value of IC′50 was from 50 nM to 200 nM.)
CN(C)c1cc(N[C@H]2CC[C@@H](CNC(=O)Nc3ccc(F)cc3)CC2)nc2ccccc12 [compound 2364]	3 (Class 3 The value of percent of control at 10^−7 M was more than 60% or the value of IC50 was more than 200 nM.)
CSc1ccc(NC(=O)NC[C@H]2CC[C@@H](Nc3cc(N(C)C)c4ccccc4n3)CC2)cc1 [compound 2365]	3 (Class 3 The value of percent of control at 10^−7 M was more than 60% or the value of IC50 was more than 200 nM.)
CN(C)c1cc(N[C@H]2CC[C@@H](CNC(=O)Nc3ccccc3C(F)(F)F)CC2)nc2ccccc12 [compound 2366]	3 (Class 3 The value of percent of control at 10^−7 M was more than 60% or the value of IC50 was more than 200 nM.)
Cc1cc(C)c(NC(=O)NC[C@H]2CC[C@@H](Nc3cc(N(C)C)c4ccccc4n3)CC2)c(C)c1 [compound 2367, N-[(cis-4-{[4-(dimethylamino)quinolin-2-yl]amino}cyclohexyl)methyl]-N′-mesitylurea]	2 (Class 2: The value of percent of control at 10^−7 M was from 40% to 60% or the value of IC′50 was from 50 nM to 200 nM.)

Reference: patent publication US20050197350A1, “Novel quinoline, tetrahydroquinazoline, and pyrimidine derivatives and methods of treatment related to the use thereof” (TAISHO PHARMACEUTICAL CO., LTD., priority 2003, published 2005)
